Experimental data taken from the CheMixHub viscosity set.
± gives the uncertainty stated by the source.

Experiment: xn = mol fraction of the nth substance listed

Q: What does the source list for `O=C(O)c1ccccc1O` + O?
A: viscosity (293.15 K, 100 kPa, x1 = 7.22e-05): 1.008 ± 0.06 mPa·s; viscosity (293.15 K, 100 kPa, x1 = 0.000108): 1.011 ± 0.06 mPa·s; viscosity (293.15 K, 100 kPa, x1 = 0.000143): 1.013 ± 0.06 mPa·s; viscosity (293.15 K, 100 kPa, x1 = 0.00018): 1.015 ± 0.06 mPa·s; viscosity (293.15 K, 100 kPa, x1 = 0.0002158): 1.017 ± 0.06 mPa·s; viscosity (293.15 K, 100 kPa, x1 = 0.0002516): 1.019 ± 0.06 mPa·s; viscosity (298.15 K, 100 kPa, x1 = 7.22e-05): 0.896 ± 0.06 mPa·s; viscosity (298.15 K, 100 kPa, x1 = 0.000108): 0.899 ± 0.06 mPa·s; viscosity (298.15 K, 100 kPa, x1 = 0.000143): 0.901 ± 0.06 mPa·s; viscosity (298.15 K, 100 kPa, x1 = 0.00018): 0.902 ± 0.06 mPa·s; viscosity (298.15 K, 100 kPa, x1 = 0.0002158): 0.904 ± 0.06 mPa·s; viscosity (298.15 K, 100 kPa, x1 = 0.0002516): 0.906 ± 0.06 mPa·s; viscosity (303.15 K, 100 kPa, x1 = 7.22e-05): 0.803 ± 0.06 mPa·s; viscosity (303.15 K, 100 kPa, x1 = 0.000108): 0.806 ± 0.06 mPa·s; viscosity (303.15 K, 100 kPa, x1 = 0.000143): 0.807 ± 0.06 mPa·s; viscosity (303.15 K, 100 kPa, x1 = 0.00018): 0.809 ± 0.06 mPa·s; viscosity (303.15 K, 100 kPa, x1 = 0.0002158): 0.81 ± 0.06 mPa·s; viscosity (303.15 K, 100 kPa, x1 = 0.0002516): 0.812 ± 0.06 mPa·s; viscosity (308.15 K, 100 kPa, x1 = 7.22e-05): 0.725 ± 0.06 mPa·s; viscosity (308.15 K, 100 kPa, x1 = 0.000108): 0.727 ± 0.06 mPa·s; viscosity (308.15 K, 100 kPa, x1 = 0.000143): 0.729 ± 0.06 mPa·s; viscosity (308.15 K, 100 kPa, x1 = 0.00018): 0.73 ± 0.06 mPa·s; viscosity (308.15 K, 100 kPa, x1 = 0.0002158): 0.732 ± 0.06 mPa·s; viscosity (308.15 K, 100 kPa, x1 = 0.0002516): 0.733 ± 0.06 mPa·s; viscosity (313.15 K, 100 kPa, x1 = 7.22e-05): 0.659 ± 0.06 mPa·s; viscosity (313.15 K, 100 kPa, x1 = 0.000108): 0.661 ± 0.06 mPa·s; viscosity (313.15 K, 100 kPa, x1 = 0.000143): 0.662 ± 0.06 mPa·s; viscosity (313.15 K, 100 kPa, x1 = 0.00018): 0.664 ± 0.06 mPa·s; viscosity (313.15 K, 100 kPa, x1 = 0.0002158): 0.665 ± 0.06 mPa·s; viscosity (313.15 K, 100 kPa, x1 = 0.0002516): 0.666 ± 0.06 mPa·s

Q: With `CCCCN(CCO)CCO` + O as the molecule, how does the viscosity (303.15 K, 101 kPa, x1 = 0.0501) read?
A: The viscosity was 3.144 ± 0.13 mPa·s.

Q: And the viscosity (303.15 K, 101 kPa, x1 = 0.0999)?
A: The viscosity was 6.924 ± 0.2 mPa·s.

Q: And the viscosity (303.15 K, 101 kPa, x1 = 0.15)?
A: Its viscosity is 11.35 ± 0.3 mPa·s.

Q: What about the viscosity (303.15 K, 101 kPa, x1 = 0.2) of the same molecule?
A: The viscosity was 15.8 ± 0.39 mPa·s.

Q: And the viscosity (303.15 K, 101 kPa, x1 = 0.3013)?
A: Its viscosity is 25.17 ± 0.58 mPa·s.

Q: What about the viscosity (303.15 K, 101 kPa, x1 = 0.3988) of the same molecule?
A: The viscosity was 32.99 ± 0.71 mPa·s.

Q: And the viscosity (303.15 K, 101 kPa, x1 = 0.4994)?
A: The viscosity was 39.06 ± 0.79 mPa·s.

Q: What about the viscosity (303.15 K, 101 kPa, x1 = 0.6027) of the same molecule?
A: The viscosity was 42.39 ± 0.81 mPa·s.

Q: What about the viscosity (303.15 K, 101 kPa, x1 = 0.7058) of the same molecule?
A: Its viscosity is 43.85 ± 0.78 mPa·s.

Q: And the viscosity (303.15 K, 101 kPa, x1 = 0.8009)?
A: The viscosity was 43.72 ± 0.73 mPa·s.

Q: And the viscosity (303.15 K, 101 kPa, x1 = 0.899)?
A: Its viscosity is 42.96 ± 0.66 mPa·s.

Q: And the viscosity (308.15 K, 101 kPa, x1 = 0.0501)?
A: Its viscosity is 2.695 ± 0.12 mPa·s.

Q: What about the viscosity (308.15 K, 101 kPa, x1 = 0.0999) of the same molecule?
A: The viscosity was 5.705 ± 0.17 mPa·s.

Q: What about the viscosity (308.15 K, 101 kPa, x1 = 0.15) of the same molecule?
A: The viscosity was 9.112 ± 0.25 mPa·s.

Q: What about the viscosity (308.15 K, 101 kPa, x1 = 0.2) of the same molecule?
A: The viscosity was 12.47 ± 0.32 mPa·s.

Q: And the viscosity (308.15 K, 101 kPa, x1 = 0.3013)?
A: Its viscosity is 19.3 ± 0.46 mPa·s.

Q: What about the viscosity (308.15 K, 101 kPa, x1 = 0.3988) of the same molecule?
A: The viscosity was 24.94 ± 0.57 mPa·s.

Q: And the viscosity (308.15 K, 101 kPa, x1 = 0.4994)?
A: The viscosity was 29.14 ± 0.63 mPa·s.

Q: What about the viscosity (308.15 K, 101 kPa, x1 = 0.6027) of the same molecule?
A: The viscosity was 31.62 ± 0.64 mPa·s.

Q: And the viscosity (308.15 K, 101 kPa, x1 = 0.7058)?
A: Its viscosity is 32.83 ± 0.62 mPa·s.

Q: And the viscosity (308.15 K, 101 kPa, x1 = 0.8009)?
A: The viscosity was 32.88 ± 0.59 mPa·s.

Q: What about the viscosity (308.15 K, 101 kPa, x1 = 0.899) of the same molecule?
A: Its viscosity is 32.66 ± 0.54 mPa·s.

Q: What about the viscosity (313.15 K, 101 kPa, x1 = 0.0501) of the same molecule?
A: The viscosity was 2.335 ± 0.12 mPa·s.

Q: And the viscosity (313.15 K, 101 kPa, x1 = 0.0999)?
A: The viscosity was 4.763 ± 0.16 mPa·s.

Q: What about the viscosity (313.15 K, 101 kPa, x1 = 0.15) of the same molecule?
A: The viscosity was 7.428 ± 0.21 mPa·s.

Q: What about the viscosity (313.15 K, 101 kPa, x1 = 0.2) of the same molecule?
A: The viscosity was 10.01 ± 0.26 mPa·s.

Q: What about the viscosity (313.15 K, 101 kPa, x1 = 0.3013) of the same molecule?
A: Its viscosity is 15.07 ± 0.36 mPa·s.

Q: And the viscosity (313.15 K, 101 kPa, x1 = 0.3988)?
A: The viscosity was 19.22 ± 0.43 mPa·s.

Q: And the viscosity (313.15 K, 101 kPa, x1 = 0.4994)?
A: Its viscosity is 22.33 ± 0.47 mPa·s.

Q: What about the viscosity (313.15 K, 101 kPa, x1 = 0.6027) of the same molecule?
A: The viscosity was 24.2 ± 0.48 mPa·s.

Q: And the viscosity (313.15 K, 101 kPa, x1 = 0.7058)?
A: Its viscosity is 25.16 ± 0.47 mPa·s.

Q: And the viscosity (313.15 K, 101 kPa, x1 = 0.8009)?
A: Its viscosity is 25.37 ± 0.44 mPa·s.

Q: What about the viscosity (313.15 K, 101 kPa, x1 = 0.899) of the same molecule?
A: Its viscosity is 25.3 ± 0.41 mPa·s.

Q: And the viscosity (318.15 K, 101 kPa, x1 = 0.0501)?
A: Its viscosity is 2.041 ± 0.11 mPa·s.

Q: And the viscosity (318.15 K, 101 kPa, x1 = 0.0999)?
A: Its viscosity is 4.027 ± 0.14 mPa·s.

Q: And the viscosity (318.15 K, 101 kPa, x1 = 0.15)?
A: Its viscosity is 6.13 ± 0.18 mPa·s.

Q: What about the viscosity (318.15 K, 101 kPa, x1 = 0.2) of the same molecule?
A: Its viscosity is 8.116 ± 0.22 mPa·s.

Q: What about the viscosity (318.15 K, 101 kPa, x1 = 0.3013) of the same molecule?
A: Its viscosity is 11.97 ± 0.29 mPa·s.

Q: And the viscosity (318.15 K, 101 kPa, x1 = 0.3988)?
A: Its viscosity is 15.07 ± 0.34 mPa·s.

Q: What about the viscosity (318.15 K, 101 kPa, x1 = 0.4994) of the same molecule?
A: Its viscosity is 17.44 ± 0.37 mPa·s.

Q: What about the viscosity (318.15 K, 101 kPa, x1 = 0.6027) of the same molecule?
A: Its viscosity is 18.83 ± 0.38 mPa·s.

Q: And the viscosity (318.15 K, 101 kPa, x1 = 0.7058)?
A: The viscosity was 19.65 ± 0.37 mPa·s.

Q: And the viscosity (318.15 K, 101 kPa, x1 = 0.8009)?
A: Its viscosity is 19.83 ± 0.35 mPa·s.

Q: And the viscosity (318.15 K, 101 kPa, x1 = 0.899)?
A: Its viscosity is 19.86 ± 0.32 mPa·s.

Q: And the viscosity (323.15 K, 101 kPa, x1 = 0.0501)?
A: The viscosity was 1.795 ± 0.11 mPa·s.

Q: And the viscosity (323.15 K, 101 kPa, x1 = 0.0999)?
A: The viscosity was 3.434 ± 0.13 mPa·s.

Q: And the viscosity (323.15 K, 101 kPa, x1 = 0.15)?
A: Its viscosity is 5.123 ± 0.16 mPa·s.

Q: And the viscosity (323.15 K, 101 kPa, x1 = 0.2)?
A: Its viscosity is 6.674 ± 0.19 mPa·s.

Q: What about the viscosity (323.15 K, 101 kPa, x1 = 0.3013) of the same molecule?
A: Its viscosity is 9.604 ± 0.25 mPa·s.

Q: And the viscosity (323.15 K, 101 kPa, x1 = 0.3988)?
A: Its viscosity is 11.96 ± 0.29 mPa·s.

Q: And the viscosity (323.15 K, 101 kPa, x1 = 0.4994)?
A: Its viscosity is 13.76 ± 0.31 mPa·s.

Q: What about the viscosity (323.15 K, 101 kPa, x1 = 0.6027) of the same molecule?
A: Its viscosity is 14.84 ± 0.31 mPa·s.

Q: What about the viscosity (323.15 K, 101 kPa, x1 = 0.7058) of the same molecule?
A: The viscosity was 15.51 ± 0.31 mPa·s.

Q: What about the viscosity (323.15 K, 101 kPa, x1 = 0.8009) of the same molecule?
A: The viscosity was 15.71 ± 0.29 mPa·s.

Q: And the viscosity (323.15 K, 101 kPa, x1 = 0.899)?
A: The viscosity was 15.82 ± 0.27 mPa·s.

Q: Which viscosity (322.46 K, 100 kPa, x1 = 0.03889) does the source give for `O=[N+]([O-])[O-].O=[N+]([O-])[O-].[Ni+2]` + O here?
A: The viscosity was 1.225 ± 0.023 mPa·s.

Q: What does the source list for `CCCC[n+]1ccccc1.[Cl][Al-]([Cl])([Cl])[Cl]` + [Al+3].[Cl-].[Cl-].[Cl-]?
A: viscosity (293.15 K, 101 kPa, x2 = 0.46): 29.8 ± 1.3 mPa·s; viscosity (293.15 K, 101 kPa, x2 = 0.57): 29 ± 1.3 mPa·s; viscosity (298.15 K, 101 kPa, x2 = 0.46): 26.4 ± 1.1 mPa·s; viscosity (298.15 K, 101 kPa, x2 = 0.57): 25.2 ± 1.1 mPa·s; viscosity (303.15 K, 101 kPa, x2 = 0.46): 22.8 ± 1 mPa·s; viscosity (303.15 K, 101 kPa, x2 = 0.57): 22.1 ± 1 mPa·s; viscosity (308.15 K, 101 kPa, x2 = 0.46): 19.9 ± 0.9 mPa·s; viscosity (308.15 K, 101 kPa, x2 = 0.57): 19.9 ± 0.9 mPa·s; viscosity (313.15 K, 101 kPa, x2 = 0.46): 17.6 ± 0.8 mPa·s; viscosity (313.15 K, 101 kPa, x2 = 0.57): 17.6 ± 0.8 mPa·s; viscosity (318.15 K, 101 kPa, x2 = 0.46): 15.8 ± 0.7 mPa·s; viscosity (318.15 K, 101 kPa, x2 = 0.57): 15.6 ± 0.7 mPa·s; viscosity (323.15 K, 101 kPa, x2 = 0.46): 13.8 ± 0.6 mPa·s; viscosity (323.15 K, 101 kPa, x2 = 0.57): 14.2 ± 0.6 mPa·s
